Reference: PMC9896555, “Cyclic Acetals as Novel Long-Lasting Mosquito Repellents” (Journal of Agricultural and Food Chemistry, 2023)
Where two headings read alike, the source gives them in different places.

What was measured:
Aedes albopictus [1] = experiment: Protection time at 0.17 mg/cm2, human-bait technique; assay type: in vivo; conditions: for pest or weed control at 0.17 mg/cm2, 0.17 mg/cm2: Aedes albopictus, topical, read-out: Protection time PE%
Procedure: To evaluate the protection time of derivatives, the PE % was measured with 100 μL of a 5% ethanol solution, corresponding to 0.17 mg/cm^2 of exposed skin, under the same laboratory conditions. Mosquito-exposed skin was treated with 100 μL of ethanol, as the negative hand control. For each volunteer (up to 8), the test was performed every hour, up to 8 h from the application. The protection time of DEET and Icaridin was measured under the same conditions. Since these trials were run in parallel with those aimed to profile the cytotoxicity of the compounds (paragraph 2.6), we interrupted the experiments for those compounds showing to have higher cytotoxicity than Icaridin and DEET as soon as the results were available. For this reason, the number of volunteers differs among the compounds.
The average time until protection which was higher than 95% protection time was considered for each compound. Moreover, for the compounds tested on at least three volunteers, the complete (100%) protection time was also estimated (SPSS 28.01.0) using the Kaplan–Meier survivor function procedure.[22]

HaCaT cells = experiment: Cytotoxicity on human keratinocytes (MTS); assay type: cell-based; conditions: 82 μg/mL, 24 h
Procedure: HaCaT cells were cultured in 5% CO2 at 37 °C in Dulbecco’s modified Eagle’s medium (DMEM), supplemented with 10% fetal bovine serum (FBS), 1% L-glutamine ([…]), and 1% penicillin–streptomycin (Thermo Fisher Scientific, Rodano, Milan, Italy). […] Experiments were performed in triplicate.

Aedes albopictus [2] = experiment: Effective dose / protection efficacy, human-bait technique; assay type: in vivo; conditions: for pest or weed control at 0.081 µg/cm2, 0.081 µg/cm2 / pest or weed control at 0.17 µg/cm2, 0.17 µg/cm2 / pest or weed control at 0.33 µg/cm2, 0.33 µg/cm2 / pest or weed control at 0.5 µg/cm2, 0.5 µg/cm2 / pest or weed control at 0.83 µg/cm2, 0.83 µg/cm2 / pest or weed control at 1.7 µg/cm2, 1.7 µg/cm2 / pest or weed control at 8.3 µg/cm2, 8.3 µg/cm2 / pest or weed control at 16.7 µg/cm2, 16.7 µg/cm2 / pest or weed control at 83.3 µg/cm2, 83.3 µg/cm2: Aedes albopictus, topical, read-out: Protection efficacy PE%; for 100% PE: Table S1
Procedure: The repellence of DEET, Icaridin (both supplied by Istituto Biochimico VEBI s.r.l.), acetals, and the synthesized hydroxyacetals was evaluated againstAedes albopictususing the human-bait technique (to simulate the condition of human skin on which repellents will be applied).[22]A. albopictuswas reared and tested at 26 ± 2 °C, ≥60 ± 10% relative humidity (RH), and at 14:10 h light/dark photoperiod, within Plexiglas cylindrical laboratory cages (35 cm diameter, 60 cm length) with one end closed by a net. During the tests, cages contained ≈150 nulliparous, 4–7 day-old, nonblood-fed females. For each compound to be tested, up to six volunteers participated in the trial.
The study was approved by the Regional Ethics Committee for Clinical Trials of Tuscany Region with the registered number 20383. Volunteers agreed to take part in the experiments following informed consent; only volunteers non-allergic to mosquito bites participated in the trials. On the day of the bioassay, they had no contact with lotions, perfumes, oils, or perfumed soaps. They wore latex surgical gloves, in which a dorsal square area of 30 cm^2 was cut open. Mosquito-exposed skin was treated with 50 μL of ethanol, as the negative hand control. The other hand was treated with 50 μL of the tested compounds in ethanol solution (dosages corresponding to 0.081, 0.17, 0.33, 0.5, 0.83, 1.7, 8.3, 16.7, and 83.3 μg/cm^2). Both hands were presented in the same test cage. The number of probing mosquitoes in a 3 min exposure period was recorded. During each test, the control and the treated hand were presented interchanged to verify the mosquitoes’ readiness to bite. Trials were considered valid only if at least 30 mosquitoes performed probing behavior on the control hand before each repellent dosage was tested. The protection efficacy (PE %) obtained from all replicates was calculated, according to the WHO guidelines[31] using this formula [drawing 1]
To evaluate the protection efficacy, volunteers applied increasing doses of the compounds to the skin on the back of their hands (30 cm^2, while the rest was covered with a rubber glove) and counted the number of mosquitoes attempting to bite; the solvent only was used on the control hand. The protection (percentage of repelled mosquitoes) was calculated as reported in the Material and Methods section.

RAW 264.7 = experiment: Immunogenicity on murine macrophages (nitric oxide release); assay type: cell-based
Procedure: Cells were cultured in DMEM, with 10% FBS, 1% L-glutamine (2 mM), and 1% penicillin–streptomycin 100 U/mL at 37 °C in an atmosphere containing 5% CO2. RAW264.7 were seeded (1 × 10^5 cells/well) and exposed to five derivatives or Icaridin, at 82 μg/mL or to LPS (1 μg/mL) as a positive control, for 3 and 6 h. After that, nitric oxide release was determined in the culture media as previously described.[32] Experiments were performed in triplicate.

For `CCCCC1(CCCC)OCC(CC)(CO)CO1` [16c], the pest or weed control at 0.17 mg/cm2, 0.17 mg/cm2 (Aedes albopictus [1]; 0.17mg/cm2, 1 h) was 99%, the pest or weed control at 0.17 mg/cm2, 0.17 mg/cm2 (Aedes albopictus [1]; 0.17mg/cm2, 2 h) was 96.3% and the pest or weed control at 0.17 mg/cm2, 0.17 mg/cm2 (Aedes albopictus [1]; 0.17mg/cm2, 3 h) was 97.6%. It also gave a pest or weed control at 0.17 mg/cm2, 0.17 mg/cm2 (Aedes albopictus [1]; 0.17mg/cm2, 4 h) of 97.1%, a pest or weed control at 0.17 mg/cm2, 0.17 mg/cm2 (Aedes albopictus [1]; 0.17mg/cm2, 5 h) of 94.8% and a pest or weed control at 0.17 mg/cm2, 0.17 mg/cm2 (Aedes albopictus [1]; 0.17mg/cm2, 6 h) of 95.4%. For the same compound, the pest or weed control at 0.17 mg/cm2, 0.17 mg/cm2 (Aedes albopictus [1]; 0.17mg/cm2, 7 h) was 95.1%, the pest or weed control at 0.17 mg/cm2, 0.17 mg/cm2 (Aedes albopictus [1]; 0.17mg/cm2, 8 h) was 99% and the “Average PT >95% (% coefficient of variation)” value (Aedes albopictus [1]; at the dose of 0.17mg/cm2) was 480 (1.4) min. For the same compound, the “Protection time (95% protection)” value (Aedes albopictus [1]; dose of 0.17 mg/cm^2, tests ended after 8 h) was 8 h, the survival of keratocytes (HaCaT cells) was over 88% and the pest or weed control at 0.081 µg/cm2, 0.081 µg/cm2 (Aedes albopictus [2]; 0.081 µg/cm2) was 6.06%. The pest or weed control at 0.17 µg/cm2, 0.17 µg/cm2 (Aedes albopictus [2]; 0.17 µg/cm2) was 59.5%, the pest or weed control at 0.33 µg/cm2, 0.33 µg/cm2 (Aedes albopictus [2]; 0.33 µg/cm2) was 8.39% and the pest or weed control at 0.5 µg/cm2, 0.5 µg/cm2 (Aedes albopictus [2]; 0.5 µg/cm2) was 36.2%. It also gave a pest or weed control at 0.83 µg/cm2, 0.83 µg/cm2 (Aedes albopictus [2]; 0.83 µg/cm2) of 52.9%, a pest or weed control at 1.7 µg/cm2, 1.7 µg/cm2 (Aedes albopictus [2]; 1.7 µg/cm2) of 95.5% and a pest or weed control at 8.3 µg/cm2, 8.3 µg/cm2 (Aedes albopictus [2]; 8.3 µg/cm2) of 100%. For the same compound, the pest or weed control at 16.7 µg/cm2, 16.7 µg/cm2 (Aedes albopictus [2]; 16.7 µg/cm2) was 100%, the pest or weed control at 83.3 µg/cm2, 83.3 µg/cm2 (Aedes albopictus [2]; 83.3 µg/cm2) was 100% and the “100% PE” value (Aedes albopictus [2]) was 1.7 µg/cm2. For the same compound, the “Protection efficacy (dose to obtain complete protection (100%) from bite attempts)” value (Aedes albopictus [2]; applied on skin of volunteers, 3 min exposure) was 8.3 μg/cm^2.
For `CCC(C)OC(=O)N1CCCCC1CCO` (stereo not shown) [Icaridin, reference compound], the “Protection time PE%” value (Aedes albopictus [1]; 0.17mg/cm2, 0 min) was 100%, the pest or weed control at 0.17 mg/cm2, 0.17 mg/cm2 (Aedes albopictus [1]; 1 h) was 100% and the pest or weed control at 0.17 mg/cm2, 0.17 mg/cm2 (Aedes albopictus [1]; 2 h) was 100%. For the same compound, the pest or weed control at 0.17 mg/cm2, 0.17 mg/cm2 (Aedes albopictus [1]; 3 h) was 99.5%, the pest or weed control at 0.17 mg/cm2, 0.17 mg/cm2 (Aedes albopictus [1]; 4 h) was 99.5% and the pest or weed control at 0.17 mg/cm2, 0.17 mg/cm2 (Aedes albopictus [1]; 5 h) was 99.8%. For the same compound, the pest or weed control at 0.17 mg/cm2, 0.17 mg/cm2 (Aedes albopictus [1]; 6 h) was 98.7%, the pest or weed control at 0.17 mg/cm2, 0.17 mg/cm2 (Aedes albopictus [1]; 7 h) was 98.7% and the pest or weed control at 0.17 mg/cm2, 0.17 mg/cm2 (Aedes albopictus [1]; 8 h) was 97.6%. For the same compound, the “Average PT >95% (% coefficient of variation)” value (Aedes albopictus [1]; at the dose of 0.17mg/cm2) was 480 (2.2) min, the “Estimated 100% PT (complete protection time, mean±SE)” value (Aedes albopictus [1]; at the dose of 0.17mg/cm2, Kaplan–Meier estimate) was 370 ± 52 min and the survival of keratocytes (HaCaT cells) was 91%. For the same compound, the pest or weed control at 0.081 µg/cm2, 0.081 µg/cm2 (Aedes albopictus [2]) was 42.4%, the pest or weed control at 0.17 µg/cm2, 0.17 µg/cm2 (Aedes albopictus [2]) was 53.7% and the pest or weed control at 0.33 µg/cm2, 0.33 µg/cm2 (Aedes albopictus [2]) was 61.8%. The pest or weed control at 0.5 µg/cm2, 0.5 µg/cm2 (Aedes albopictus [2]) was 77.8%, the pest or weed control at 0.83 µg/cm2, 0.83 µg/cm2 (Aedes albopictus [2]) was 69.3% and the pest or weed control at 1.7 µg/cm2, 1.7 µg/cm2 (Aedes albopictus [2]) was 99.6%. It also gave a pest or weed control at 8.3 µg/cm2, 8.3 µg/cm2 (Aedes albopictus [2]) of 100%, a pest or weed control at 16.7 µg/cm2, 16.7 µg/cm2 (Aedes albopictus [2]) of 100% and a pest or weed control at 83.3 µg/cm2, 83.3 µg/cm2 (Aedes albopictus [2]) of 100%. The “100% PE” value (Aedes albopictus [2]) was 8.3 µg/cm2, the “immunogenicity (nitric oxide release / nitrite production), in words” value (RAW 264.7; RAW264.7, 82 μg/mL, 6 h) was “three-time increase in the nitrite production compared to the control treatment” and the “production of nitrite as compared to the positive control” value (RAW 264.7; RAW264.7, positive control LPS 1 μg/mL) was 40%.
